Source: patent publication US20140341922A1, “Method for Overcoming Tolerance to Targeted Anti-Cancer Agent” (SUN R&DB Foundation, priority 2011, published 2014)

Tests used:
[1] = tested on: 13 HNSCC and 6 NSCLC cells; test: MTS viability assay in PCPs and UAPs; format: cell-based, human; conditions: PCPs, 25 μg/ml, 7 days
Protocol: (§1) Cells were cultured in 96-well poly(poly-2-hydroxyethyl methacrylate [HEMA])-coated plates (PCPs) or ultra-low attached plates (UAPs). Control IgG1 (25 μg/ml), cixutumumab (25 μg/ml), PP2 (10 μM), and an integrin β3 neutralizing antibody B3A (10 μg/ml) were diluted in culture media containing 10% FBS or IGF-1 and treated alone or in combination. To examine the effect on cancer cell proliferation, a 3-(4,5-dimethylthiazol-2-yl)-2,5-diphenyltetrazolium bromide (MTT) or 3-(4,5-dimethylthiazol-2-yl)-5-(3-carboxymethoxyphenyl)-2-(4-sulfophenyl)-2H-tetrazolium (MTS) assay was performed, and to evaluate the effect on anchorage-independent colony formation, a soft agar colony formation assay was performed according to a method in our previous report (Morgillo et al., 2006).
(§2) The PCPs were prepared according to a previously reported method (Fukazawa et al., 1995). In brief, tissue culture plates were collated twice with poly-(HEMA) (10 mg/ml in 95% ethanol) at 37° C. and then washed with phosphate-buffered saline (PBS) several times.
HNSCC and NSCLC cells grown in PCPs and UAPs were treated with cixutumumab (25 μg/ml) for 7 days. Each bar represents mean±SD of 6 wells of a single representative experiment.

[2] = tested on: LN686 tumor xenografts; test: LN686 xenograft, cixutumumab and Ad-CSK; format: in vivo, mouse; conditions: after 21 days
Protocol: LN686, UMSCC38, H226B, or A549m cells (1×10^6 cells/mouse in 100 μl of PBS) were subcutaneously injected into nude mice at a single dorsal flank site (6-9 mice per group). For HNSCC patient-derived tumor xenografts, primary human tumor specimens were collected from an untreated patient who underwent lobectomies of squamous carcinoma of the oral cavity. The tumors were cut into small pieces with a size of 2-mm^3 and subcutaneously implanted into the nude mice (one piece per mouse). At 0 day (the time point when tumor size reached to 80 to 100 mm^3) mice were treated with cixutumumab (10 mg/kg, i.p., once or twice a week), Ad-EV (3×10^11 pfu, intratumoral injection, once a week), Ad-CSK (3×10^11 pfu, intratumoral injection, once a week), siCon, siintegrin β3 ([…], i.p., once a week), dasatinib (20 mg/kg, oral gavage, daily), cixutumumab and Ad-CSK, or cixutumumab and dasatinib.
To further determine the effects of inhibiting integrin β3/Src signaling on antitumor activities of cixutumumab, an adenovirus expressing c-Src tyrosine kinase that phosphorylates the autoinhibitory tyrosine 527 was used (Yeatman, 2004). […]

[3] = tested on: Src and FAK phosphorylation; test: Fluorescent immunostaining of pSrc and pFAK; format: cell-based, human
Excerpt: The present inventors reconfirmed the western blot analysis results in which Src and FAK phosphorylation was increased due to cixutumumab in the presence of IGF-1 by fluorescent immunostaining. Cultured LN686 cells in UAPs with cixutumumab alone or in combination with IGF-1 or an integrin β3 neutralizing antibody, treated with IGF-1 to fix, and then Src and FAK phosphorylation was confirmed. […] Such an action of the cixutumumab was abolished by the IGF-1 or integrin β3 neutralizing antibody, and therefore it was reconfirmed that the action of cixutumumab for inducing the Src and FAK phosphorylation was mediated by integrin β3 in the presence of IGF-1.
According to the Previous study, a modified integrin β3 expression vector was prepared by substituting an amino acid sequence (CYDMKTTC, residues 177-184) of the integrin β3 essential for the IGF-1 bond with an amino acid sequence (CTSEQNC, residues 187-193) of integrin β1 at a corresponding position. An empty vector or a modified integrin β3 expression vector was transfected into FADU cells. These cells were plated, and cultured along with cixutumumab (25 μg/ml) alone or in combination with IGF-1 or an integrin β3 neutralizing antibody for 4 h. After the culture, IGF-1 […] was treated for 1 hour, and the cells were recovered, washed with PBS, and fixed with 10% formalin for 2 h. […]

[4] = tested on: LN686, FADU, and OSC19 cells; test: Cell counting in 3D-mimic 2D culture (PCP or UAP); format: cell-based, human
Protocol: as §1, §2
Since cell growth rates could be different under each set of culture conditions, the present inventor counted the cells at distinct culture periods and depicted the results in FIG. 6. The values were represented as mean±standard deviation (SD), and a statistical significance was evaluated using two-sided Student t test (*P<0.05; **P<0.01).

cixutumumab: humanized mAb targeting IGF-1R, provided by ImClone Systems
inhibition in viability ([1]; 7 HNSCC and 2 NSCLC cell lines (red, resistant)): less than 20% | inhibition in viability ([1]; remaining 2 HNSCC and 2 NSCLC cell lines (black, sensitive)): more than 60% | mean tumor weight compared to a control group [2]: 96% | IGF-1-induced Src and FAK phosphorylation in cell membrane ([3]; LN686 cells adhered to ECM-coated coverslip): did not suppress or somewhat increased | Src and FAK phosphorylation (immunostaining) ([3]; LN686 cells in UAPs, in the presence of IGF-1): enhanced phosphorylation | growth rates vs control cells ([4]; LN686 and FADU cells): no difference | growth rates vs control cells ([4]; OSC19 cells): significantly slower growth rates
